From patent US20240299393A1, “SMALL MOLECULE DISRUPTORS OF PROTEIN INTERACTIONS IN HISTONE DEACETYLASE COMPLEXES” (Dana-Farber Cancer Institute, Inc., priority 2021, published 2024)
Entries after “also recorded” stand apart in the source; their conditions may differ.

Assays:
[1] = test system: Rpd3-sensitive acid phosphatase activity; assay: Yeast acid phosphatase plate assay; format: cell-based, S. cerevisiae; settings: phosphate-rich (high Pi) medium
Description: The acid phosphatase plate assay was implemented as previously described [To et al 1973, Loewith et al 2001], with minor modifications. Cells were grown on high Pi medium (see above) for 2 days, at 30° C. A staining solution containing 2 mg/mL of 1-naphtyl phosphate (Sigma, N5602) and 4 mg/mL fast blue B salt (Sigma, D9805) was then prepared in 50 mM sodium acetate buffer pH 4.0±0.1, and maintained at 50° C. for ˜30 min before being filtered. Meanwhile, a solution of 10 mg/mL (1% weight/volume) ultra pure low melting point (LMP) agarose (Invitrogen, 15517-022) was prepared in 50 mM sodium acetate buffer pH 4.0±0.1, by microwaving the suspension until complete dissolution of the powder. The volume of the agarose solution was checked and readjusted with 50 mM sodium acetate buffer pH 4.0±0.1. The agarose solution was then mixed with the filtered staining solution by vortexing briefly, and the resulting suspension was kept at 50° C. for ˜15 min. The solid agar plate on which cells grew for 2 days were then gently overlaid with the agarose-containing staining solution, allowing its gelification on top of the cells. A red coloring started to appear ˜2 min after covering cells with the solution.

[2] = biological target: T1, Sin3 occupancy (Saccharomyces cerevisiae, UniProt P22579); assay: ChIP-qPCR and ChIP-seq of Sin3-(HA)3 in yeast; format: cell-based, S. cerevisiae; settings: for Sin3 occupancy at URS-URA3 and INO1 (ChIP-qPCR) / number of genes with decreased Sin3 occupancy (ChIP-seq): 400 μM; for Sin3 occupancy at URS-URA3 and INO1 (ChIP-qPCR): 2 h; for number of genes with decreased Sin3 occupancy (ChIP-seq) / number of genes with reduced Sin3 occupancy (ChIP-seq): of 545 Sin3-occupied genes; for number of genes with decreased Sin3 occupancy (ChIP-seq): FIG. 5D; for number of genes with reduced Sin3 occupancy (ChIP-seq): FIG. 5K
T1 construct: expressed in transfected cells; host or cells: S. cerevisiae JOY116 (sin3Δ) transformed with YEplac181-Sin3-(HA)3
T1 sequence (P22579 whole entry): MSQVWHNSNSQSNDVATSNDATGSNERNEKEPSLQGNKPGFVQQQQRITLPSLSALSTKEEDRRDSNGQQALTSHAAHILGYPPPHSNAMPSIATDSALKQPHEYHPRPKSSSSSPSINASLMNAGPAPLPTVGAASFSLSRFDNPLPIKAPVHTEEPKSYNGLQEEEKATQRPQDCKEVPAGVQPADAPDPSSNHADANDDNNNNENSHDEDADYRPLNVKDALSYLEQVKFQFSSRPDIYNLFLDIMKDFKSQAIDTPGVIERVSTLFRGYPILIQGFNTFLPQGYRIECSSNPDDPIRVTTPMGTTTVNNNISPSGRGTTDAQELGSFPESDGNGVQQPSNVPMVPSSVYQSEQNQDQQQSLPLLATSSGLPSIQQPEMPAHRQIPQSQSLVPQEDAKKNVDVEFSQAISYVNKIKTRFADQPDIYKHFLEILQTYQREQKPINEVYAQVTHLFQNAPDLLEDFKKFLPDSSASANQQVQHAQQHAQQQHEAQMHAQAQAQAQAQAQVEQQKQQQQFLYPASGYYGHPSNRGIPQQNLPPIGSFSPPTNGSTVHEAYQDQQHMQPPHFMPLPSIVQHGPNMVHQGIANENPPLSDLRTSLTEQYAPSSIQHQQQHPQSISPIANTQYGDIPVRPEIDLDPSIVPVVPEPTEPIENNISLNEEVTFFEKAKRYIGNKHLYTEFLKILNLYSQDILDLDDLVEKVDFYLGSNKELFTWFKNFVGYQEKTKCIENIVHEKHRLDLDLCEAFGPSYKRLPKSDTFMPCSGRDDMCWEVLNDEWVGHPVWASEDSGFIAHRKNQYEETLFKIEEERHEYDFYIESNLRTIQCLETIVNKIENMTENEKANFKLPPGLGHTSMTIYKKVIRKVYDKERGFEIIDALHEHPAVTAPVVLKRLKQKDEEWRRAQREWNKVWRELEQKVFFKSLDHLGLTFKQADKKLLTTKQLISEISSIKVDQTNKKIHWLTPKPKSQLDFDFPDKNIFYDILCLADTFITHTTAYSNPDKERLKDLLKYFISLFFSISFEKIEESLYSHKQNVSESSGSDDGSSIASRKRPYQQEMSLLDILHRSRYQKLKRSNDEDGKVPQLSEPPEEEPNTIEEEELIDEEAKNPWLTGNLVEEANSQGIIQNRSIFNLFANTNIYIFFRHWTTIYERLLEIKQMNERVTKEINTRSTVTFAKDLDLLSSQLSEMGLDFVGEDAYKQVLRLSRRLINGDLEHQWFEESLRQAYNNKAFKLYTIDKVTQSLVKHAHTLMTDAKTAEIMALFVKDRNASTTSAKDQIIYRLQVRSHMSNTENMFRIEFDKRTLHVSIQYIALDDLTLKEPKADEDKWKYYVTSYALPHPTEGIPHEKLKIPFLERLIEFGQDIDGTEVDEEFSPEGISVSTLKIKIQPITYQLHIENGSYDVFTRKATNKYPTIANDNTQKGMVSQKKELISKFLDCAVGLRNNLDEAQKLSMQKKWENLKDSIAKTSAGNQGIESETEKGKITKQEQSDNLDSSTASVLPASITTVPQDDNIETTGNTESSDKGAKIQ
Description: ChIP procedures in yeast were adapted from previously established protocols, with minor modifications [Sertil et al 2007, Jezek et al 2017, Barski et al 2007]. Briefly, yeast S. cerevisiae JOY116 (sin3Δ) cells transformed with the YEplac181-Sin3-(HA)3 plasmid were cultured in liquid SC-L, until OD600 nm reached ˜0.7. […] (200 rpm). After 2 h of incubation, cells were treated with 1% formaldehyde for 20 min at 4° C. for cross-linking. Then, 125 mM glycine was applied for 5 min at room temperature to quench cross-linking. Yeast cells were centrifuged (10 min at 1,000 g), and the resulting pellets were washed twice with 50 mL ice-cold phosphate-buffered saline (PBS). Yeast pellets were resuspended in 500 μL of ChIP lysis buffer (50 mM HEPES-KOH pH 7.5, 140 mM NaCl, 1 mM EDTA, 1% Triton X-100, 0.1% sodium deoxycholate, 0.1% SDS, and yeast protease inhibitors). After that, 500 μL of the yeast suspensions in lysis buffer were mixed with 500 μL of zirconia beads in a screw-top microcentrifuge tube. For cell lysis, the tubes were vortexed at maximum speed for 15 min at 4° C. Cell lysates were collected by punching a hole on the bottom of the screw-cap tube, with a sterile needle, and centrifuging the lysates into new Eppendorf tubes. Then, 300 μL of lysates were added into 1.5 mL Bioruptor Pico microtubes with caps (Diagenode, cat #C30010016), and subsequent sonication was conducted with a Bioruptor Pico sonication device, in the following conditions: 30 s/3 cycles on, and 30 s/3 cycles off, at 4° C. The sonicated lysates were cleared by 30 min centrifugation at maximum speed at 4° C. The resulting cleared lysates, with sheared chromatin, were saved, snap freezed, and stored at −80° C. until use. Next, 10 μL cleared lysates were reverse-cross linked overnight, at 65° C., in the presence of proteinase K. Phenol-chloroform extractions and EtOH precipitations were then applied to purify the sheared DNA. DNA agarose gel running and DNA concentration measurements with a NanoDrop spectrophotometer were finally conducted to assess the size and yield of the sheared DNA, respectively.
For the pull-downs, 25 μg of sheared chromatin from each sample were diluted (1:10) in ice-cold dilution buffer (1% Triton X-100, 2 mM EDTA, 20 mM Tris-HCl pH 8, 150 mM NaCl, and yeast protease inhibitors), and mixed with 10 μg ChIP-grade anti-HA (Abcam, cat #ab9110), or isotype control anti-IgG (Abcam, cat #ab171870) antibodies. Then, 50 μL of pre-washed Dynabeads Protein G for Immunoprecipitation (ThermoFisher, cat #10003D) were added to each individual sample. Chromatin immunoprecipitation was performed by incubating samples at 4° C. overnight, under gentle shaking (300 rpm). The day after, the Dynabeads were washed three times with 1 mL ice-cold wash buffer (0.1% SDS, 1% Triton X-100, 2 mM EDTA, 20 mM Tris-HCl pH 8, 150 mM NaCl), and then once with 1 mL ice-cold final wash buffer (0.1% SDS, 1% Triton X-100, 2 mM EDTA pH 8, 20 mM Tris-HCl pH 8, 500 mM NaCl), using a magnetic rack. DNA was eluted with 120 μL elution buffer (1% SDS, 100 mM NaHCO3), by incubating samples at 30° C. for 15 min. For input, 10 μL of sheared cell lysates were added to 110 μL of elution buffer. Then, 4 μL proteinase K were added to the eluted DNA or inputs, and reverse-cross linking was achieved by incubating samples overnight at 65° C. After overnight incubation, phenol-chloroform extractions and EtOH precipitations were conducted to purify ChIP-DNA. The ChIP-DNA was eluted in a total volume of 200 μL ddH2O, and then used for ChIP-qPCR or ChIP-Seq. Briefly, for ChIP-qPCR, 4 μL of eluted ChIP-DNA were mixed with 5 μL of PowerUp SYBR Green master mix (Applied Biosystems, cat #A25743), and 1 μL of the primer mix (forward+reverse; 3 μM final concentration), for a total volume of 10 μL. Two technical replicates were generated for each DNA sample from three ChIP replicates. ChIP-DNA samples were then transferred into the 384-well skirted PCR plate (Applied Biosystems, cat #4343370). […]

[3] = Tolerability of chronic treatment in mice; format: in vivo; settings: 50 mg/kg I.P. daily for 10 days
Description: For the pilot RT-qPCR experiment, in addition to the vehicle condition (ethanol 100%/kolliphor/saline 0.9% in a proportion of 1:1:14.4; for the 50 mg/kg dose, 14 μL NaOH 1M were also added), three doses (mg/kg) of E6R were tested: 5, 15, and 50, with 4 (vehicle) or 3 (E6R) animals per group. A dose of 50 mg/kg was picked to conduct further experiments. For the RNA-Seq experiment, E6R was dissolved in a vehicle solution containing saline 55% v/v, DMSO 34% v/v, ethanol 5% v/v, kolliphor EL (Sigma-Aldrich, MO, USA) 5% v/v, NaOH 1M 1% v/v. The vehicle group received the same solution. Animals were injected daily by intraperitoneal (I.P.) injection with 5 μL/g of the solution (50 mg/kg of the drug or vehicle) at 11 am for 10 days. Animal wellness was verified by daily visual inspection and weighing. […] On the 11th day, animals were sacrificed by bleeding via heart puncture under carbon dioxide anesthesia. The brains were quickly removed and the bilateral frontal cortex (bregma 1.90 to 1.40 mm) was dissected followed by total RNA extraction. The spleens were also collected in the pilot RT-qPCR experiments.

Row | Structure (SMILES) | Rpd3-sensitive acid phosphatase activity [1] | Sin3 occupancy at URS-URA3 and INO1 (ChIP-qPCR) [2] | number of genes with decreased Sin3 occupancy (ChIP-seq) [2] [genes] | number of genes with reduced Sin3 occupancy (ChIP-seq) [2] [genes] | tolerability, behavior and body mass [3] | Sin3 occupancy at INO1, IME2 and CAR1 (ChIP-Seq traces) ([2]; not at SPO3 or TRK2)
1 | CC(/C=C/C(=O)NO)=C\[C@@H](C)C(=O)c1ccc(N(C)C)cc1 [TSA, trichostatin A] | induced | appeared to prevent recruitment of Sin3; also recorded: decreased occupancy | 142 | 295 |  | 
2 | C[C@@H](NC(=O)c1c(O)n2ccccc2nc1=O)c1ccccc1 [E6R, 4-hydroxy-2-oxo-N—((R)-1-phenylethyl)-3,4-dihydro-2H-pyrido[, 2-a]pyrimidine-3-carboxamide] |  |  |  |  | No abnormal behavior or significant body mass decrease (>5%); also recorded: well-tolerated | 
3 | CC(NC(=O)c1c(O)n2ccccc2nc1=O)c1ccccc1 (racemic) [E6] | opposite behavior | significantly decreased; also recorded: decreased occupancy | 360 | 450 |  | reduced
